Assay results from US20160326142A1, “PYRAZOLE CARBOXAMIDE COMPOUNDS, COMPOSITIONS AND METHODS OF USE” (Genentech, Inc., priority 2012, published 2016).
pKi: −log10 of the molar value.

The molecules below were run against T1, ITK (Homo sapiens, UniProt Q08881) (assay: ITK enzyme assay (Caliper or LCMS peptide phosphorylation)). Conditions: purified ITK (Invitrogen PV3875), 20 μM ATP, Ki by Morrison's quadratic equation.
T1 construct: purchased Invitrogen PV3875
T1 sequence (Q08881 1-620): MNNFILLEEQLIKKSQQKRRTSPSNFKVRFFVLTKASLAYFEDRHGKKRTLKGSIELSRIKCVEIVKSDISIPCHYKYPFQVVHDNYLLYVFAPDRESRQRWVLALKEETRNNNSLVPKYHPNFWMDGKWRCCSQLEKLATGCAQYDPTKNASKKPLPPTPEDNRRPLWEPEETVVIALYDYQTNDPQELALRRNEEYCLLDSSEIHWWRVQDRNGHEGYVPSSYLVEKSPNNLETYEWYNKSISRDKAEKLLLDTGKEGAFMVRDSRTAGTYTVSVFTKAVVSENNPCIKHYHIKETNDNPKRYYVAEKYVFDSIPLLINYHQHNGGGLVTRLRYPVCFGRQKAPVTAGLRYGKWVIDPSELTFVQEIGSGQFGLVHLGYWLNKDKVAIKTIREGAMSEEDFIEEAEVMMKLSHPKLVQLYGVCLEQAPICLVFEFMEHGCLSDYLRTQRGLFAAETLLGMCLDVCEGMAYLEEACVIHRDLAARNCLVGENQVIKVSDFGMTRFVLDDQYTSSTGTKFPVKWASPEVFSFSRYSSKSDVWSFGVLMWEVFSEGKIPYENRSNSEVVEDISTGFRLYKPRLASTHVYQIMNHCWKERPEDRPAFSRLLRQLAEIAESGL
Format: biochemical
How it was run: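 Ki values come from Morrison quadratic fits of activity versus inhibitor concentration, adjusted for ATP-competitive inhibition against ATP/Km,app. Substrate and phosphopeptide from purified ITK reactions were resolved either microfluidically (Caliper, EDTA stop) or by LC-MS MRM (TCA stop).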

Row | SMILES | pKi
1 | CC1(C)CCc2c(C(=O)Nc3cnn(C(c4ccccc4)[C@@H]4CNCCO4)c3)n[nH]c2C1 (single isomer, unassigned) [Example 66b] | 9.00
2 | CC1(C)CCc2c(C(=O)Nc3cnn(C(c4ccccc4)C4CCN(S(C)(=O)=O)CC4)c3)n[nH]c2C1 (single isomer, unassigned) [Example 67a, 6,6-dimethyl-N-(1-((1-(methylsulfonyl)piperidin-4-yl)(phenyl)methyl)-1H-pyrazol-4-yl)-4,5,6,7-tetrahydro-1H-indazole-3-carboxamide] | 9.70
3 | CC1(C)CCc2c(C(=O)Nc3cnn(C(c4ccccc4)C4CCN(S(C)(=O)=O)CC4)c3)n[nH]c2C1 (single isomer, unassigned) [Example 67b, 6,6-dimethyl-N-(1-((1-(methylsulfonyl)piperidin-4-yl)(phenyl)methyl)-1H-pyrazol-4-yl)-4,5,6,7-tetrahydro-1H-indazole-3-carboxamide] | 8.52
4 | CN(C)CC(c1ccccc1)n1cc(NC(=O)c2n[nH]c3c2CC2CC2(C)C3)cn1 (single isomer, unassigned) [Example 68a, N-(1-(2-(dimethylamino)-1-phenylethyl)-1H-pyrazol-4-yl)-5a-methyl-1,4,4a,5,5a,6-hexahydrocyclopropa[f]indazole-3-carboxamide] | 9.70
5 | CN(C)CC(c1ccccc1)n1cc(NC(=O)c2n[nH]c3c2CC2CC2(C)C3)cn1 (single isomer, unassigned) [Example 68b, N-(1-(2-(dimethylamino)-1-phenylethyl)-1H-pyrazol-4-yl)-5a-methyl-1,4,4a,5,5a,6-hexahydrocyclopropa[f]indazole-3-carboxamide] | 8.40
6 | CC1(C)Cc2[nH]nc(C(=O)Nc3cnn(Cc4ccccc4)c3)c2CC1O (single isomer, unassigned) [Example 70a, N-(1-benzyl-1H-pyrazol-4-yl)-5-hydroxy-6,6-dimethyl-4,5,6,7-tetrahydro-1H-indazole-3-carboxamide] | 7.96
7 | CC1(C)Cc2[nH]nc(C(=O)Nc3cnn(Cc4ccccc4)c3)c2CC1O (single isomer, unassigned) [Example 70b, N-(1-benzyl-1H-pyrazol-4-yl)-5-hydroxy-6,6-dimethyl-4,5,6,7-tetrahydro-1H-indazole-3-carboxamide] | 8.15
8 | CC1(C)CCc2c(C(=O)Nc3cnn(C(CS(C)(=O)=O)c4cccnc4)c3)n[nH]c2C1 (single isomer, unassigned) [Example 73a, 6,6-dimethyl-N-(1-(2-(methylsulfonyl)-1-(pyridin-3-yl)ethyl)-1H-pyrazol-4-yl)-4,5,6,7-tetrahydro-1H-indazole-3-carboxamide] | 9.15
9 | CC1(C)CCc2c(C(=O)Nc3cnn(C(CS(C)(=O)=O)c4cccnc4)c3)n[nH]c2C1 (single isomer, unassigned) [Example 73b, 6,6-dimethyl-N-(1-(2-(methylsulfonyl)-1-(pyridin-3-yl)ethyl)-1H-pyrazol-4-yl)-4,5,6,7-tetrahydro-1H-indazole-3-carboxamide] | 8.15
10 | CC1(C)CCc2c(C(=O)Nc3cnn(C(c4cccnc4)C4CCS(=O)(=O)CC4)c3)n[nH]c2C1 (single isomer, unassigned) [Example 74a, N-(1-((1,1-dioxidotetrahydro-2H-thiopyran-4-yl)(pyridin-3-yl)methyl)-1H-pyrazol-4-yl)-6,6-dimethyl-4,5,6,7-tetrahydro-1H-indazole-3-carboxamide] | 9.70
11 | CC1(C)CCc2c(C(=O)Nc3cnn(C(c4cccnc4)C4CCS(=O)(=O)CC4)c3)n[nH]c2C1 (single isomer, unassigned) [Example 74b, N-(1-((1,1-dioxidotetrahydro-2H-thiopyran-4-yl)(pyridin-3-yl)methyl)-1H-pyrazol-4-yl)-6,6-dimethyl-4,5,6,7-tetrahydro-1H-indazole-3-carboxamide] | 8.52
12 | CC1(C)CCc2c(C(=O)Nc3cnn(C(c4ccccc4)C4CN(CCF)C4)c3)n[nH]c2C1 (single isomer, unassigned) [Example 75a, N-(1-((1-(2-fluoroethyl)azetidin-3-yl)(phenyl)methyl)-1H-pyrazol-4-yl)-6,6-dimethyl-4,5,6,7-tetrahydro-1H-indazole-3-carboxamide] | 8.70
13 | CC1(C)CCc2c(C(=O)Nc3cnn(C(CN4CCOCC4=O)c4ccccc4)c3)n[nH]c2C1 (single isomer, unassigned) [Example 77a, 6,6-dimethyl-N-(1-(2-(3-oxomorpholino)-1-phenylethyl)-1H-pyrazol-4-yl)-4,5,6,7-tetrahydro-1H-indazole-3-carboxamide] | 7.70
14 | CC1(C)CCc2c(C(=O)Nc3cnn(C(CN4CCOCC4=O)c4ccccc4)c3)n[nH]c2C1 (single isomer, unassigned) [Example 77b, 6,6-dimethyl-N-(1-(2-(3-oxomorpholino)-1-phenylethyl)-1H-pyrazol-4-yl)-4,5,6,7-tetrahydro-1H-indazole-3-carboxamide] | 8.70
15 | CC(C1CCOCC1)n1cc(NC(=O)c2n[nH]c3c2CCC(C)(C)C3)cn1 (single isomer, unassigned) [Example 78a, 6,6-dimethyl-N-(1-(1-(tetrahydro-2H-pyran-4-yl)ethyl)-1H-pyrazol-4-yl)-4,5,6,7-tetrahydro-1H-indazole-3-carboxamide] | 7.59
16 | CC(C1CCOCC1)n1cc(NC(=O)c2n[nH]c3c2CCC(C)(C)C3)cn1 (single isomer, unassigned) [Example 78b, 6,6-dimethyl-N-(1-(1-(tetrahydro-2H-pyran-4-yl)ethyl)-1H-pyrazol-4-yl)-4,5,6,7-tetrahydro-1H-indazole-3-carboxamide] | 8.22
17 | O=C(Nc1cnn(Cc2ccccc2)c1)c1n[nH]c2c1CC1(CCOC1)C2 (single isomer, unassigned) [Example 79a, N-(1-benzyl-1H-pyrazol-4-yl)-4,4′,5′,6-tetrahydro-1H,2′H-spiro[cyclopenta[c]pyrazole-5,3′-furan]-3-carboxamide] | 7.34
18 | O=C(Nc1cnn(Cc2ccccc2)c1)c1n[nH]c2c1CC1(CCOC1)C2 (single isomer, unassigned) [Example 79b, N-(1-benzyl-1H-pyrazol-4-yl)-4,4′,5′,6-tetrahydro-1H,2′H-spiro[cyclopenta[c]pyrazole-5,3′-furan]-3-carboxamide] | 7.02
19 | CC1(C)CCc2c(C(=O)Nc3cnn(C(CCC#N)c4cccnc4)c3)n[nH]c2C1 (single isomer, unassigned) [Example 80a, N-(1-(3-cyano-1-(pyridin-3-yl)propyl)-1H-pyrazol-4-yl)-6,6-dimethyl-4,5,6,7-tetrahydro-1H-indazole-3-carboxamide] | 8.70
20 | CC1(C)CCc2c(C(=O)Nc3cnn(C(CCC#N)c4cccnc4)c3)n[nH]c2C1 (single isomer, unassigned) [Example 80b, N-(1-(3-cyano-1-(pyridin-3-yl)propyl)-1H-pyrazol-4-yl)-6,6-dimethyl-4,5,6,7-tetrahydro-1H-indazole-3-carboxamide] | 8.70
21 | CC1(C)CCc2c(C(=O)Nc3cnn(C(CO)c4cccnc4)c3)n[nH]c2C1 (single isomer, unassigned) [Example 81a, N-(1-(2-hydroxy-1-(pyridin-3-yl)ethyl)-1H-pyrazol-4-yl)-6,6-dimethyl-4,5,6,7-tetrahydro-1H-indazole-3-carboxamide] | 7.77
22 | CC1(C)CCc2c(C(=O)Nc3cnn(C(CO)c4cccnc4)c3)n[nH]c2C1 (single isomer, unassigned) [Example 81b, N-(1-(2-hydroxy-1-(pyridin-3-yl)ethyl)-1H-pyrazol-4-yl)-6,6-dimethyl-4,5,6,7-tetrahydro-1H-indazole-3-carboxamide] | 8.52
23 | CC(c1cscn1)n1cc(NC(=O)c2n[nH]c3c2CCC(C)(C)C3)cn1 (single isomer, unassigned) [Example 84a, 6,6-dimethyl-N-(1-(1-(thiazol-4-yl)ethyl)-1H-pyrazol-4-yl)-4,5,6,7-tetrahydro-1H-indazole-3-carboxamide] | 7.34
24 | CC(c1cscn1)n1cc(NC(=O)c2n[nH]c3c2CCC(C)(C)C3)cn1 (single isomer, unassigned) [Example 84b, 6,6-dimethyl-N-(1-(1-(thiazol-4-yl)ethyl)-1H-pyrazol-4-yl)-4,5,6,7-tetrahydro-1H-indazole-3-carboxamide] | 7.89
25 | CC1(C)CCc2c(C(=O)Nc3cnn(C(c4nccs4)C4CCSCC4)c3)n[nH]c2C1 (single isomer, unassigned) [Example 85a, 6,6-dimethyl-N-(1-((tetrahydro-2H-thiopyran-4-yl)(thiazol-2-yl)methyl)-1H-pyrazol-4-yl)-4,5,6,7-tetrahydro-1H-indazole-3-carboxamide] | 9.22
26 | CC1(C)CCc2c(C(=O)Nc3cnn(C(c4nccs4)C4CCSCC4)c3)n[nH]c2C1 (single isomer, unassigned) [Example 85b, 6,6-dimethyl-N-(1-((tetrahydro-2H-thiopyran-4-yl)(thiazol-2-yl)methyl)-1H-pyrazol-4-yl)-4,5,6,7-tetrahydro-1H-indazole-3-carboxamide] | 9.05
